Marks after values point to notes of the source that are not given here.
Legend:
5-HT2A receptor [1] = target: T1, 5-HT2A receptor (Homo sapiens, UniProt P28223); assay: IP-One HTRF functional assay, 5-HT2A agonist mode; assay type: cell-based; design: expressed in transfected cells; settings: % of reference agonist activity at its EC100
Procedure: (§1) Example 4—Agonist or Antagonist Activity on Recombinant Human Dopamine and Serotonin Receptors Using IPOne HTRF and cAMP HTRF Assays
(§2) IP-One and cAMP HTRF assays are conducted with recombinant cell lines.
(§3) Agonist activity of test compounds is expressed as a percentage of the activity of the reference agonist at its EC100 concentration. Antagonist activity of the test compound is expressed as a percentage of the inhibition of reference agonist activity at its EC80 concentration.

human 5-HT1A receptor = target: T2, human 5-HT1A receptor (Homo sapiens, UniProt P08908); assay: cAMP HTRF functional assay, 5-HT1A agonist mode; assay type: cell-based; settings: for 5-HT1A functional character: agonist mode, summary of Tables 4-5; for Top % Activation at maximal concentration, 5-HT1A (agonist mode): cAMP, % of reference agonist activity at its EC100
T2 sequence (P08908 1-422): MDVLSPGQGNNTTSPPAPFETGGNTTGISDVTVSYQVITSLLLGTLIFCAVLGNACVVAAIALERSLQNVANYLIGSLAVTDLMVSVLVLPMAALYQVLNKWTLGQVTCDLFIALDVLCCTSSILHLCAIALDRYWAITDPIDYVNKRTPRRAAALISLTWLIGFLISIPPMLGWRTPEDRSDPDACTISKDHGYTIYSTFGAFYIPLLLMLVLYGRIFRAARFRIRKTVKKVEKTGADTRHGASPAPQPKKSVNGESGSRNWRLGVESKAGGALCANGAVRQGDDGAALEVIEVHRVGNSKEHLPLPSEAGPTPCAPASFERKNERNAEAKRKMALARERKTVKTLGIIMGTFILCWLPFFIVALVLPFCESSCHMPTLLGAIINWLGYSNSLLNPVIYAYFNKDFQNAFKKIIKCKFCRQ
Procedure: as §1, §2, §3

5-HT2A receptor [2] = target: T1, 5-HT2A receptor; assay type: binding

T1 sequence (P28223 whole entry): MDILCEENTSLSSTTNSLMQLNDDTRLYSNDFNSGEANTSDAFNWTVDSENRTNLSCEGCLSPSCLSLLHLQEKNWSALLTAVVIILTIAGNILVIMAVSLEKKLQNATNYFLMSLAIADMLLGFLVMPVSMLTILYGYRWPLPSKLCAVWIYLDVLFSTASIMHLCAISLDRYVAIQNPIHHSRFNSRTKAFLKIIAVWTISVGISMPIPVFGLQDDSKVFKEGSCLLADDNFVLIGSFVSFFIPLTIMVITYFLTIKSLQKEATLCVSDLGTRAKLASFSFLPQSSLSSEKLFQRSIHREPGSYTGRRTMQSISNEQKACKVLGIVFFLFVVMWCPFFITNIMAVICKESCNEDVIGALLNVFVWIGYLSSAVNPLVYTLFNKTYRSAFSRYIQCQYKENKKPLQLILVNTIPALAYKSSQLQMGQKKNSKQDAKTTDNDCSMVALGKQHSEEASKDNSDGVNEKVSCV

Top % Activation at maximal concentration, 5-HT2A (agonist mode) (5-HT2A receptor [1]) | 5-HT1A functional character (human 5-HT1A receptor) | Top % Activation at maximal concentration, 5-HT1A (agonist mode) (human 5-HT1A receptor) | SMILES | binding to the 5-HT2A receptor in vitro (5-HT2A receptor [2])
84^d % | strong 5-HT1A agonist | 71^d % | [2H]c1c([2H])c([2H])c(CN2CC[C@@H](NC(=O)c3cc(Cl)c(NC)cc3OC)[C@H]2C)c([2H])c1[2H] [Ex. 1 (10), 5-Chloro-N-((2R,3R)-1-((pentadeuterophenyl)methyl)-2-methylpyrrolidin-3-yl)-2-methoxy-4-(methylamino)benzamide] | –
94% | 5-HT1A partial agonist | 59% | [2H]C([2H])([2H])Oc1cc(NC)c(Cl)cc1C(=O)N[C@@H]1CCN(Cc2ccccc2)[C@@H]1C [Ex. 2 (18), 5-Chloro-N-((2R,3R)-1-((phenyl)methyl)-2-methylpyrrolidin-3-yl)-2-trideuteromethoxy-4-(methylamino)benzamide] | –
– | – | – | CCN1CCC[C@@H]1CNC(=O)c1c(OC)ccc(Br)c1OC [R-remoxipride] | do not even bind
– | – | – | CCN1CCC[C@H]1CNC(=O)c1c(OC)ccc(Br)c1OC [S-remoxipride] | do not even bind
